Results on 26 compounds are retold here after patent publication US6875761B2 (Eisai Co., Ltd., priority 1997, dated 2005).

pKi: −log10 of the molar value. Structures can show the parent of a compound that is named as a salt. Where two headings read alike, the source gives them in different places.

The target of test [1] is T1, serotonin 2 receptor (Rattus norvegicus, UniProt P14842).
T1 construct: To the receptor fraction of the cerebral cortex were added a test compound and 0.3 nM of [^3H] ketanserin; from tissue; host or cells: rat cerebral cortex membrane fraction
Description: Binding test on [3H] ketanserin, cerebral cortex receptor fraction. The arrangement: species or system SD rats. The settings on record: 0.3 nM [3H] ketanserin, 37° C. 15 min, read-out: 5HT2.

The target in test [2] is T2, serotonin 1A receptor (Rattus norvegicus, UniProt P19327).
T2 construct: To the receptor fraction of the hippocampus were added a test compound and 0.5 nM of [^3H]; 8-hydroxy-dipropylaminotetralin; from tissue; host or cells: rat hippocampus membrane fraction
T2 sequence (P19327 1-422): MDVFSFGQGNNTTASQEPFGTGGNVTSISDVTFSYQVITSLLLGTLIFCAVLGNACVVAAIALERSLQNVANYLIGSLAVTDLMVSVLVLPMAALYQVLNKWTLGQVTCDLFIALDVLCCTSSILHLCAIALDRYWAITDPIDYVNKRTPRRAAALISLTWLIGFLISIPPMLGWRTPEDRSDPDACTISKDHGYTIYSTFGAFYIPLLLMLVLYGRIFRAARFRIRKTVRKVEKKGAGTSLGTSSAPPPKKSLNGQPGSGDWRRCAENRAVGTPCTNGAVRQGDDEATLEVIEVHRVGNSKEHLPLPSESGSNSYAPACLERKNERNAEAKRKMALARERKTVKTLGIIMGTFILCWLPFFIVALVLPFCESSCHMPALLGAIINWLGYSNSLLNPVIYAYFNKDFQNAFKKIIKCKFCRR
Description: Binding test on [3H] 8-hydroxy-dipropylaminotetralin, hippocampus receptor fraction. Details: species or system SD rats.

The mark [3] stands for this setting: rat hippocampus receptor fraction, 0.5 nM [3H] 8-OH-DPAT, room temperature 30 min, read-out: 5HT1.

T1 sequence (P14842 whole entry): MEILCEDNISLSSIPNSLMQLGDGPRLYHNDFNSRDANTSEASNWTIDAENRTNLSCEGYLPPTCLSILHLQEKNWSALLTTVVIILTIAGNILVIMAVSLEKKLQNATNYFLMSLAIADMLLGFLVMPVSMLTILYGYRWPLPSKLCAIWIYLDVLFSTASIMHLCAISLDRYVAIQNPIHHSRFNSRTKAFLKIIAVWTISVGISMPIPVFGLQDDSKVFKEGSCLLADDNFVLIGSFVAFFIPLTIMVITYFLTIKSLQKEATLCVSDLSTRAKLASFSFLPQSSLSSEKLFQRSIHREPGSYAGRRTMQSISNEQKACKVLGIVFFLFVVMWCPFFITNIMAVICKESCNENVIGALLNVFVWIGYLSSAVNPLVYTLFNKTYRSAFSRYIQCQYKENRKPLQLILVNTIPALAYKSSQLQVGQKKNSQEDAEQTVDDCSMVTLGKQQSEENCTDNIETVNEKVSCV

`CCC/C(=N\O)c1ccc(-c2cc3ccccc3c(N3CCN(CC)CC3)n2)cc1` [Example 380, 1-(4-Ethylpiperazin-1-yl)-3-[4-(1-Hydroxyiminobutyl)Phenyl]Isoquinoline]: the pKi in test [1] was 7.64; in test [2] (setting [3]), 7.51.
In the same order, the values of `CCN1CCN(c2nc(-c3ccc(N)cc3)cc3ccccc23)CC1` [Example 65, 3-(4-Aminophenyl)-1-(4-Ethylpiperazin-1-Yl)Isoquinoline Hydrochloride] are 7.47 and 7.22.
For `CCN1CCN(c2nc(-c3ccc(OCCO)c(C(C)C)c3)cc3ccccc23)CC1` [Example 41, 3-[3-isopropyl-4-(2-hydroxyethoxy)phenyl]-1-(4-ethylpiperazin-1-yl)isoquinoline hydrochloride] the same measures were 7.34 and 7.40.
For `CCN1CCN(c2nc(-c3ccc(NS(=O)(=O)CC)cc3)cc3ccccc23)CC1` [Example 71, 3-(4-Ethylsulfonylaminophenyl)-1-(4-Ethylpiperazin-1-Yl)Isoquinoline Hydrochloride], the results for the pKi in test [1] and in test [2] (setting [3]) were 8.82 and 8.70, respectively.
In the same order, the values of `CCN1CCN(c2nc(-c3ccc(CCCO)cc3)cc3ccoc23)CC1` [Example 299, 7-(1-ethylpiperazin-4-yl)-5-[4-(3-hydroxypropyl)phenyl]furo[2,3-c]pyridine dihydrochloride] are 7.52 and 9.43.
For `CCN1CCN(c2nc(-c3ccc(CC(C)O)cc3)cc3ccccc23)CC1` (stereo not shown) [Example 376, 1-(4-ethylpiperazin-1-yl)-3-[4-(2-hydroxypropyl)phenyl]isoquinoline oxalate] the same measures were 8.20 and 7.71.
For `CCN1CCN(c2nc(Sc3ccccc3)cc3ccccc23)CC1` [Example 374, 1-(4-ethylpiperazin-1-yl)-3-(phenylthio)isoquinoline oxalate], the pKi in test [1] was 7.61; in test [2] (setting [3]), 7.35.
Consider `CCN1CCN(c2nc(CCc3cccc(OCCO)c3)cc3ccccc23)CC1` [Example 108, 1-(1-Ethylpiperazin-4-yl)-3-[3-(2-hydroxyethoxy)phenethyl]isoquinoline], for which the pKi was 7.47 in test [1] and 6.81 in test [2] (setting [3]).
For `CCNC(=O)Oc1ccc(-c2cc3ccccc3c(N3CCN(CC)CC3)n2)cc1` [Example 59], the pKi was 7.84 in test [1] and 7.79 in test [2].
For `CCN1CCN(c2nc(-c3ccc(C#CC(C)(C)O)cc3)cc3sccc23)CC1` [Example 466, 4-(4-ethylpiperazin-1-yl)-6-[4-(3-hydroxy-3-methyl-1-butynyl)phenyl]thieno[3,2-c]pyridine oxalate], the pKi in test [1] was 9.00; in test [2] (setting [3]), 7.30.
For `CCN1CCN(c2nc(-c3ccc(C(=O)NC4CCCCC4)cc3)cc3ccsc23)CC1` [Example 273, dihydrochloride] the same measures were 8.04 and 7.29.
`CCN1CCN(c2nc(-c3ccc(N4CCSCC4)nc3)cc3ccccc23)CC1` [Example 150, 1-(4-ethylpiperazin-1-yl)-3-[2-(thiomorpholin-4-yl)pyridin-5-yl]isoquinoline trihydrochloride]: the pKi in test [1] was 9.10; in test [2] (setting [3]), 7.97.
For `CCN1CCN(c2nc(-c3ccc(N4CCC(OC)CC4)nc3)cc3ccccc23)CC1` [Example 153, 1-(4-ethylpiperazin-1-yl)-3-[2-(4-methoxypiperidin-1-yl)pyridin-5-yl]isoquinoline trihydrochloride] the same measures were 8.82 and 7.89.
In the same order, the values of `CCN1CCN(c2nc(/C=C/c3ccc(OCCO)cc3)cc3ccsc23)CC1` [Example 431, 7-(4-ethylpiperazin-1-yl)-5-[4-(2-hydroxyethoxy)styryl]thieno[2,3-c]pyridine hydrochloride] are 8.68 and 8.70.
In the same order, the values of `CCN1CCN(c2nc(C#CCCc3ccccc3)cc3ccccc23)CC1` [Example 182, 1-(1-Ethylpiperazin-4-Yl)-3-[4-Phenyl-1-Butynyl)Isoquinoline Dihydrochloride] are 7.80 and 8.00.
For `CCN1CCN(c2nc(-c3ccc(OCCO)cc3)cc3cccnc23)CC1` [Example 245, 8-(1-ethylpiperazin-4-yl)-6-[4-(2-hydroxyethoxy)phenyl]-1,7-naphthyridine Dihydrochloride], the pKi was 7.14 in test [1] and 6.96 in test [2] (setting [3]).
On to `CCN1CCN(c2nc(C(=O)c3ccccc3OC)cc3ccccc23)CC1` [Example 111, 3-(2-Methoxyphenylcarbonyl)-1-(4-ethylpiperazin-1-yl)isoquinoline Oxalate], for which the pKi in test [1] was 7.05; in test [2] (setting [3]) it was 7.99.
Take `CCN1CCN(c2nc(-c3cccc(CCCO)c3)cc3ccccc23)CC1` [Example 418, 1-(4-ethylpiperazin-1-yl)-3-[3-(3-hydroxypropyl)phenyl]isoquinoline]: the pKi in test [1] is 7.76; in test [2] (setting [3]), 7.26.
For `CCN1CCN(c2nc(C#Cc3ccc(OC)cc3)cc3ccccc23)CC1` [Example 178, 1-(1-Ethylpiperazin-4-Yl)-3-(4-Methoxyphenyl)Ethynylisoquinoline Dihydrochloride] the same measures were 9.70 and 7.25.
In the case of `CCN1CCN(c2nc(-c3ccc(C(C)(C)CCO)cc3)cc3ccsc23)CC1` [Example 443, 7-(4-ethylpiperazin-1-yl)-5-[4-(3-hydroxy-1,1-dimethylpropyl)phenyl]thieno[2,3-c]pyridine dihydrochloride], the pKi in test [1] is 8.73; in test [2] (setting [3]) it was 7.99.
In the same order, the values of `CCN1CCN(c2nc(-c3ccc(CNS(=O)(=O)CC)c(Cl)c3)cc3ccccc23)CC1` [Example 91, 3-(3-Chloro-4-ethylsulfonylaminomethylphenyl)-1-(4-ethylpiperazin-1-yl)isoquinoline Hydrochloride] are 8.80 and 8.96.
For `CCCC(=O)Nc1ncc(-c2cc3ccccc3c(N3CCN(CC)CC3)n2)cn1` [Example 174, 3-(2-Propylcarbonylaminopyrimidin-5-Yl)-1-(4-Ethylpiperazin-1-Yl)Isoquinoline Hydrochlroide] the same measures were 8.14 and 7.54.
As to `CCN1CCN(c2nc(-c3ccc(CS(C)(=O)=O)cc3)cc3ccccc23)CC1` [Example 90, 3-(4-Methylsulfonylmethylphenyl)-1-(4-ethylpiperazin-1-yl)isoquinoline Hydrochloride], the results for the pKi in test [1] and in test [2] (setting [3]) were 7.89 and 8.35, respectively.
In the same order, the values of `CCN1CCN(c2nc(-c3ccc(OC)cc3)cc3cscc23)CC1` [Example 277, 4-(4-ethylpiperazin-1-yl)-6-(4-methoxyphenyl)thieno[3,4-c]pyridine oxalate] are 7.28 and 7.15.
For `CCN1CCN(c2nc(-c3ccc(CC4CCOCC4)cc3)cc3ccccc23)CC1` [Example 399, 1-(4-Ethylpiperazin-1-yl)-3-[4-(tetrahydropyran-4-yl)Methylphenyl]Isoquinoline Dihydrochloride] the same measures were 7.76 and 7.28.
In the same order, the values of `CCN1CCN(c2nc(-c3ccc(CS(=O)(=O)N(CC)CC)cc3)cc3ccccc23)CC1` [Example 82, 3-[4-(N,N-diethylamino)sulfonylmethylphenyl]-1-(4-ethylpiperazin-1-yl)isoquinoline Hydrochloride] are 7.97 and 9.70.
